Test results reported in the supplement of paper PMC10307832.

Key:
Test in all cases: relative viability (nuclei count vs DMSO), 5 days (fraction); higher = more cells survive
[1] = compound: C1CNCCC1C2=CC(=NN2)C3=CC=NC=C3 + COc1cccc2cc(-c3nc([C@H]4CC[C@H](C(=O)O)CC4)n4ncnc(N)c34)[nH]c12 [OSI-027] (partner 0.5 µM)
Outline: (§1)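 Lung cancer cell lines in 1536-well plates were dosed by pin tool the day after seeding, either with one drug alone or with a fixed anchor-drug dose plus five library-drug doses (not always all listed) in √10 steps. After 5 days, cells were fixed and their nuclei stained in one step (final 0.05% Triton X-100, 1% formaldehyde, 1 ug/ml Hoechst), then counted on 4× images. Relative viability is the nuclei count in treated wells divided by that in vehicle wells. Values are medians of duplicate plates.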

[2] = compound: C[C@@H](N)c1ccc(C(=O)Nc2ccnc3[nH]ccc23)cc1 + CC(=O)Nc1cccc(-n2c(=O)n(C3CC3)c(=O)c3c(Nc4ccc(I)cc4F)n(C)c(=O)c(C)c32)c1 [Trametinib] (partner 0.02 µM)
Outline: as §1

[3] = compound: C[C@@H](N)c1ccc(C(=O)Nc2ccnc3[nH]ccc23)cc1 + N=C(N)NC(=N)NCCc1ccccc1 [Phenformin] (partner 250 µM)
Outline: as §1

[4] = compound: C1CNCCC1C2=CC(=NN2)C3=CC=NC=C3 + Cc1nc(Nc2ncc(C(=O)Nc3c(C)cccc3Cl)s2)cc(N2CCN(CCO)CC2)n1 [Dasatinib] (partner 0.075 µM)
Outline: as §1

Row | Cell Line | relative viability ([1]; first compound 0.08 µM) | relative viability ([1]; first compound 0.8 µM) | relative viability ([1]; first compound 2.53 µM) | relative viability ([1]; first compound 8 µM) | relative viability ([2]; first compound 0.04 µM) | relative viability ([2]; first compound 0.1265 µM) | relative viability ([2]; first compound 0.4 µM) | relative viability ([2]; first compound 1.265 µM) | relative viability ([2]; first compound 4 µM) | relative viability ([3]; first compound 0.04 µM) | relative viability ([3]; first compound 0.1265 µM) | relative viability ([3]; first compound 0.4 µM) | relative viability ([3]; first compound 1.265 µM) | relative viability ([3]; first compound 4 µM) | relative viability ([4]; first compound 0.08 µM) | relative viability ([4]; first compound 0.8 µM) | relative viability ([4]; first compound 2.53 µM) | relative viability ([4]; first compound 8 µM)
1 | 201T | 0.72 | 0.718 | 0.832 | 0.842 | 0.701 | 0.712 | 0.733 | 0.758 | 0.815 | 0.427 | 0.442 | 0.462 | 0.428 | 0.473 | 0.62 | 0.561 | 0.602 | 0.602
2 | NCI-H1734 | 0.543 | 0.616 | 0.674 | 0.653 | 0.735 | 0.698 | 0.708 | 0.668 | 0.582 | 0.355 | 0.383 | 0.431 | 0.282 | 0.397 | 0.424 | 0.533 | 0.527 | 0.529
3 | NCI-H520 | 0.247 | 0.2 | 0.236 | 0.311 | 0.915 | 0.73 | 0.697 | 0.891 | 0.719 | 0.635 | 0.603 | 0.702 | 0.404 | 0.656 | 0.17 | 0.163 | 0.187 | 0.206
4 | NCI-H1650 | 0.552 | 0.744 | 0.751 | 0.625 | 0.579 | 0.786 | 0.648 | 0.554 | 0.609 | 0.434 | 0.463 | 0.345 | 0.331 | 0.421 | 0.262 | 0.257 | 0.356 | 0.35
5 | NCI-H1355 | 0.446 | 0.372 | 0.472 | 0.476 | 0.482 | 0.427 | 0.446 | 0.433 | 0.393 | 0.393 | 0.469 | 0.498 | 0.436 | 0.388 | 0.651 | 0.718 | 0.798 | 0.695
6 | NCI-H1915 | 0.643 | 0.641 | 0.623 | 0.646 | – | 0.299 | 0.298 | – | 0.239 | 0.289 | 0.37 | 0.38 | – | 0.319 | 0.286 | 0.311 | 0.316 | 0.308
7 | BEN | 0.303 | 0.295 | 0.233 | 0.33 | 1.01 | 0.87 | 0.984 | 1.37 | 0.85 | 0.279 | 0.265 | 0.258 | 0.267 | 0.248 | 0.266 | 0.286 | 0.339 | 0.326
8 | NCI-H3122 | 0.856 | 1.02 | 1.05 | 0.981 | 0.231 | 0.229 | 0.223 | 0.26 | 0.234 | 0.352 | 0.413 | 0.39 | – | 0.377 | 0.605 | 0.879 | 0.983 | 0.859
9 | SK-MES-1 | 0.51 | 0.565 | 0.624 | 0.593 | 0.607 | 0.523 | 0.458 | 0.488 | 0.401 | 0.63 | 0.712 | 0.658 | 0.583 | 0.571 | 0.424 | 0.221 | 0.465 | 0.368
10 | HOP-62 | 0.816 | 0.912 | 0.831 | 0.773 | 0.425 | 0.356 | 0.35 | 0.377 | 0.365 | 0.607 | 0.609 | 0.636 | 0.552 | 0.607 | 0.691 | 0.635 | 0.703 | 0.648
11 | HCC-366 | 1.12 | 1.01 | 1.05 | 0.878 | 0.345 | 0.332 | 0.388 | 0.399 | 0.375 | 0.583 | 0.66 | 0.617 | – | 0.57 | 0.405 | 0.898 | 0.618 | 0.594
12 | NCI-H2347 | 0.494 | 0.291 | 0.442 | 0.487 | 0.283 | 0.337 | 0.366 | 0.304 | 0.175 | 0.502 | 0.532 | 0.546 | – | 0.584 | 0.352 | 0.288 | 0.307 | 0.332
13 | LXF-289 | 0.847 | 0.829 | 0.901 | 0.728 | 0.661 | 0.676 | 0.708 | 0.797 | 0.588 | 0.509 | 0.524 | 0.525 | 0.569 | 0.496 | 0.267 | 0.184 | 0.228 | 0.185
14 | NCI-H1793 | 0.261 | 0.246 | 0.302 | 0.23 | 0.46 | 0.442 | 0.452 | – | 0.61 | 0.355 | 0.424 | 0.421 | – | 0.393 | 0.335 | 0.357 | 0.352 | 0.404
15 | LU99A | 0.292 | 0.291 | 0.331 | 0.304 | – | 0.586 | 0.52 | 0.477 | 0.483 | – | 0.924 | 0.768 | 0.605 | 0.635 | 0.522 | 0.744 | 0.836 | 0.645
16 | PC-14 | 0.722 | 1.12 | 0.986 | 0.822 | 0.736 | 0.656 | 0.497 | – | 0.431 | 0.409 | 0.653 | 0.555 | 0.348 | 0.519 | 0.245 | 0.272 | 0.296 | 0.221
17 | NCI-H2085 | 0.818 | 0.515 | 0.682 | 0.935 | 0.653 | 0.702 | 0.652 | 0.726 | 0.583 | 0.628 | 0.77 | 0.778 | 0.359 | 0.636 | 0.244 | – | 0.296 | 0.215
18 | NCI-H2170 | 0.611 | 0.697 | 0.776 | 0.686 | 0.959 | 0.944 | 0.926 | 0.999 | 0.939 | 0.401 | 0.442 | 0.492 | 0.353 | 0.38 | 0.536 | 0.52 | 0.574 | 0.643
19 | HCC-78 | 0.344 | 0.359 | 0.354 | 0.383 | 0.979 | 0.793 | 0.981 | 1.2 | 0.661 | 1.05 | 0.818 | 0.855 | 0.797 | 0.797 | 0.352 | 0.257 | 0.356 | 0.369
